Measurements taken from ChEMBL document CHEMBL4219072, “Enhancing the anti-biofilm activity of 5-aryl-2-aminoimidazoles through nature inspired dimerisation” (Bioorg Med Chem, 2018).

Key:
Staphylococcus aureus [1] = assay: Antibiofilm activity against Staphylococcus aureus SH1000 after 48 hrs by crystal violet staining based assay; format: functional, organism-based; conditions: SH1000, 48 h
Salmonella typhimurium [2] = assay: Antibiofilm activity against Salmonella typhimurium ATCC 14028 after 24 hrs by crystal violet staining based assay; format: functional, organism-based, Salmonella enterica subsp. enterica serovar Typhimurium; conditions: Salmonella enterica, ATCC 14028, 24 h
Salmonella typhimurium [3] = assay: Inhibition of planktonic growth of Salmonella typhimurium ATCC 14028 after 24 hrs; format: organism-based, Salmonella enterica subsp. enterica serovar Typhimurium; conditions: Salmonella enterica, ATCC 14028, 24 h
Escherichia coli [4] = assay: Antibiofilm activity against Escherichia coli TG1 after 24 hrs by crystal violet staining based assay; format: functional, organism-based; conditions: TG1, 24 h
Pseudomonas aeruginosa = assay: Antibiofilm activity against Pseudomonas aeruginosa PA14 after 24 hrs by crystal violet staining based assay; format: functional, organism-based; conditions: PA14, 24 h
Escherichia coli [5] = assay: Inhibition of planktonic growth of Escherichia coli TG1 after 24 hrs; format: organism-based; conditions: TG1, 24 h
Staphylococcus aureus [6] = assay: Inhibition of planktonic growth of Staphylococcus aureus SH1000 after 48 hrs; format: organism-based; conditions: SH1000, 48 h

Row | Compound | IC50 (Staphylococcus aureus [1]) | IC50 (Salmonella typhimurium [2]) | IC50 (Escherichia coli [4]) | IC50 (Pseudomonas aeruginosa) | IC50 (Salmonella typhimurium [3]) | IC50 (Escherichia coli [5]) | IC50 (Staphylococcus aureus [6])
1 | Brc1ccc(-c2cnc(NCCCCCCCNc3ncc(-c4ccc(Br)cc4)[nH]3)[nH]2)cc1 | 300 µM | 50.4 µM | 19.1 µM | 252 µM | > 800 µM | 122 µM | 217 µM
2 | Clc1ccc(-c2cnc(NCCCCNc3ncc(-c4ccc(Cl)cc4)[nH]3)[nH]2)cc1 | 200 µM | 12.3 µM | 9.3 µM | 13 µM | 41.6 µM | 31.6 µM | 158 µM
3 | Clc1ccc(-c2cnc(NCCCCCCNc3ncc(-c4ccc(Cl)cc4)[nH]3)[nH]2)cc1 | 150 µM | 30.5 µM | 24.8 µM | 80.4 µM | 529 µM | 96.6 µM | 327 µM
4 | Brc1ccc(-c2cnc(NCCCCNc3ncc(-c4ccc(Br)cc4)[nH]3)[nH]2)cc1 | 300 µM | 13.2 µM | 7.2 µM | 11.2 µM | > 800 µM | > 100 µM | 145 µM
5 | Brc1ccc(-c2cnc(NCCCCCCCCNc3ncc(-c4ccc(Br)cc4)[nH]3)[nH]2)cc1 | 68.1 µM | 31.3 µM | 90.6 µM | 893 µM | > 800 µM | 136 µM | 69.3 µM
6 | Clc1ccc(-c2cnc(NCCCCCNc3ncc(-c4ccc(Cl)cc4)[nH]3)[nH]2)cc1 | 94.4 µM | 3.8 µM | 12 µM | 6 µM | 15.2 µM | 224 µM | 90.2 µM

The next compounds have a lower IC50 (Staphylococcus aureus [1]) than those just listed; values first:

Row | IC50 (Staphylococcus aureus [1]) | IC50 (Salmonella typhimurium [2]) | IC50 (Escherichia coli [4]) | IC50 (Pseudomonas aeruginosa) | Compound | IC50 (Salmonella typhimurium [3]) | IC50 (Escherichia coli [5]) | IC50 (Staphylococcus aureus [6])
7 | 12 µM | 6.5 µM | 10.5 µM | 13.4 µM | Brc1ccc(-c2cnc(NCCCCCNc3ncc(-c4ccc(Br)cc4)[nH]3)[nH]2)cc1 | 35.9 µM | 22.4 µM | 26.4 µM
8 | 24.2 µM | 5.5 µM | 4.1 µM | 11.2 µM | Brc1ccc(-c2cnc(NCCCNc3ncc(-c4ccc(Br)cc4)[nH]3)[nH]2)cc1 | 11.9 µM | 4.77 µM | 29.2 µM
9 | 53.3 µM | 15.7 µM | 8.3 µM | 8.8 µM | Brc1ccc(-c2cnc(NCCCCCCNc3ncc(-c4ccc(Br)cc4)[nH]3)[nH]2)cc1 | > 800 µM | 6.43 µM | 93.8 µM
10 | 13 µM | 2.7 µM | 4.9 µM | 5.6 µM | Clc1ccc(-c2cnc(NCCCNc3ncc(-c4ccc(Cl)cc4)[nH]3)[nH]2)cc1 | 11.4 µM | 14.7 µM | 23.5 µM
